Results reported in patent publication US8969249B2, “Synthesis and biological activity of bicyclic ABA analogs” (National Research Council of Canada, priority 2004, dated 2015).

Key:
[1] = test system: Arabidopsis thaliana (Columbia wild type) seeds; assay: seed germination inhibition assay; format: in vivo; conditions: for germination index: lowest concentration of 0.33 μM
Protocol: (§1) In yet an additional embodiment, bicyclic ABA and analogs of the present invention may be used in a process for inhibiting seed germination. In one embodiment, bicyclic ABA is used in a germination assay of Arabidopsis thaliana (Columbia wild type) seeds over a wide range of concentrations (0.33-33 μM). Similar treatments were performed for ABA [1] (both enantiomers) to allow for a direct comparison between ABA and bicyclic ABA (both enantiomers). The results are expressed in terms of germination indices, which summarize the rate and extent of germination over the time of the experiment at a given concentration. […] At the lowest concentration of 0.33 μM, the germination index for (+)-ABA (1) was almost 0.4, compared with less than 0.1 in the case of (+) bicyclic ABA [8].
as §1, with “Bicyclic” for “In yet an additional embodiment, bicyclic”, “produced using the process” for “and analogs”, “was also studied” for “may be used in a process for inhibiting seed germination. In one embodiment, bicyclic ABA is used”, “μM) (FIG. 7).” for “μM).”, “[1]” for “(1)”, “[8]. […] It was only active at concentrations of ≧1 μM.” for “[8].”
Arabidopsis thaliana (Columbia wild type) seed germination inhibition studies were performed as described by Cutler et. al. (23). The treatments were performed in duplicate with 50 seeds per plate and incubated at 24° C. with 16 hr days and 8 hr nights for the duration of the test (7 days).

[2] = test system: suspension-cultured cells of maize (Black Mexican Sweet); assay: growth inhibition assay using suspension-cultured corn cells; format: cell-based; conditions: for inhibition of growth of suspension-cultured maize cells: dose-dependent over concentration range 0.1-10.0 μM
From the text: In yet another embodiment, a process for inhibiting plant cell growth using the bicyclic ABA and analogs of the present invention is described. The ability of bicyclic ABA and analogs of the present invention to inhibit plant cell growth may be assayed with a growth inhibition assay. In one assay, suspension-cultured corn cells are used in a well characterized experimental system that has been useful for comparing the biological activity and metabolism of ABA and ABA analogs (6).
The growth inhibition assay using suspension-cultured corn cells is a well characterized experimental system that has been very useful for comparing the biological activity and metabolism of ABA and ABA analogs (6).
Maize cell cultures were treated as described by Balsevich et. al. (6). The cultures were incubated on a rotary shaker for 4 days, and the cells were separated from the medium by vacuum filtration and weighed immediately. The effect of ABA and bicyclic ABA on cell growth was determined at various concentrations (0-10 μM) by calculating the percentage increase in fresh weight [(final weight×100/initial weight)−100)]. Measurements were performed in triplicate and average values were normalized to a control (untreated) value of 100%.

Row | Molecule | germination index ([1]; 7-day test) | inhibition of growth of suspension-cultured maize cells [2] | germination inhibition compared with comparator (in words) ([1]; (+)-[8] versus (+) ABA, (−)-[8] versus (+)-[8]) | inhibition of seed germination (in words) ([1]; all concentrations (0.33-33 μM), 7-day test period) | inhibitory activity (cell growth) relative to (+)-ABA ([2]; BMS maize suspension cells, 4 days, FIG. 6) | concentrations at which active/effective in inhibiting germination ([1]; tested 0.33-33 μM, 7-day test)
1 | CC1=CC(=O)CC(C)(C)C1(O)/C=C/C(C)=C\C(=O)O (single isomer, unassigned; (+)) [(+)-ABA, abscisic acid, reference compound] | ~0.4 | inhibited the growth | – | – | – | –
2 | CC(=C/C(=O)O)/C=C/[C@@]1(O)c2ccccc2C(=O)CC1(C)C [(+)-[8], (2Z,4E)-5-((1S)-1-Hydroxy-2,2-dimethyl-4-oxo-1,2,3,4-tetrahydro-naphthalen-1-yl)-3-methyl-penta-2,4-dienoic acid] | less than 0.1 | inhibited the growth | more effective germination inhibitor than (+) ABA | highly effective | ~10 fold | –
3 | abscisic acid [(−) enantiomer of ABA [1], reference compound] | – | – | – | – | – | ≥ 3.33 µM
